From the SangsterLogP compilation come the findings set out here.

Structures are written as SMILES.

The nature of this series: method code SF-HPLC, from DOI: 10.1021/jf960844v.
For `CO/N=C(\C)c1cccc(Oc2nc(OC)cc(OC)n2)c1C(=O)OC`, the logP amounted to 2.57.
The molecule `COC(=O)c1c(Oc2nc(OC)cc(OC)n2)cccc1C(C)=NOCC=C(Cl)Cl` had a logP of 4.23.
With `COC(=O)c1c(Oc2nc(OC)cc(OC)n2)cccc1C(C)=NOCCF` the figure was 2.31; with `C=C(Br)CON=C(C)c1cccc(Oc2nc(OC)cc(OC)n2)c1C(=O)OC`, 3.73.
The molecule `C=CCO/N=C(\C)c1cccc(Oc2nc(OC)cc(OC)n2)c1C(=O)OC` displayed a log partition coefficient (logP) of 3.13.
For `COC(=O)c1c(Oc2nc(OC)cc(OC)n2)cccc1/C(C)=N/OCCCl` the value was 3.23; for `CCCO/N=C(\C)c1cccc(Oc2nc(OC)cc(OC)n2)c1C(=O)OC`, 3.59.
For `CCCCON=C(C)c1cccc(Oc2nc(OC)cc(OC)n2)c1C(=O)OC` the value was 4.11.
Molecule `COC(=O)c1c(Oc2nc(OC)cc(OC)n2)cccc1C(C)=NOCC(F)(F)F` gave a log partition coefficient (logP) of 3.39.
With `COC(=O)c1c(Oc2nc(OC)cc(OC)n2)cccc1C(C)=NO` the figure was 1.93; with `CCO/N=C(\C)c1cccc(Oc2nc(OC)cc(OC)n2)c1C(=O)OC`, 2.96.
For `COC(=O)c1c(Oc2nc(OC)cc(OC)n2)cccc1C(C)=NOC(C)=O` the value was 1.68.
With `C=C(Cl)CON=C(C)c1cccc(Oc2nc(OC)cc(OC)n2)c1C(=O)OC` the figure was 3.63; with `COC(=O)c1c(Oc2nc(OC)cc(OC)n2)cccc1C(C)=NOCc1ccccc1`, 4.01.

As a reminder, the logP is the decadic logarithm of the partition coefficient of the neutral form, usually between octanol and water.
